# Data reported in patent US20130005747A1, “METHOD FOR SELECTING A CANCER THERAPY” (Cyclacel Limited, priority 2010, published 2013).
# What was measured:
# Assay in all cases: Fractional growth, 72 h seliciclib
# Assay type in all cases: cell-based, human
# [1] = tested on: A-427; settings: A-427 (Lung: NSCLC), 15 μM seliciclib
# From the text: (§1) A total of 270 human cancer cell lines from diverse cancer histopathologic types were investigated.
# [2] = tested on: A431; settings: A431 (Skin), 15 μM seliciclib
# From the text: as §1
# [3] = tested on: A673; settings: A673 (Muscle), 15 μM seliciclib
# From the text: as §1
# [4] = tested on: AN3CA; settings: AN3CA (Uterus), 15 μM seliciclib
# From the text: as §1
# [5] = tested on: BxPC-3; settings: BxPC-3 (Pancreas), 15 μM seliciclib
# From the text: as §1
# [6] = tested on: C-33 A; settings: C-33 A (Cervix), 15 μM seliciclib
# From the text: as §1
# [7] = tested on: CAL-62; settings: CAL-62 (Thyroid), 15 μM seliciclib
# From the text: as §1
# [8] = tested on: CaR-1; settings: CaR-1 (Intestine), 15 μM seliciclib
# From the text: as §1
# [9] = tested on: Daoy; settings: Daoy (Brain), 15 μM seliciclib
# From the text: as §1
# [10] = tested on: EJ138; settings: EJ138 (Bladder), 15 μM seliciclib
# From the text: as §1
# [11] = tested on: ESS-1; settings: ESS-1 (Uterus), 15 μM seliciclib
# From the text: as §1
# [12] = tested on: H2052; settings: H2052 (Lung), 15 μM seliciclib
# From the text: as §1
# [13] = tested on: H2596; settings: H2596 (Lung), 15 μM seliciclib
# From the text: as §1
# [14] = tested on: H2722; settings: H2722 (Lung), 15 μM seliciclib
# From the text: as §1
# [15] = tested on: HSC-3; settings: HSC-3 (Head & Neck), 15 μM seliciclib
# From the text: as §1
# [16] = tested on: HT115; settings: HT115 (Intestine), 15 μM seliciclib
# From the text: as §1
# [17] = tested on: Hs 633T; settings: Hs 633T (Miscellaneous), 15 μM seliciclib
# From the text: as §1
# [18] = tested on: IGR-1; settings: IGR-1 (Skin), 15 μM seliciclib
# From the text: as §1
# [19] = tested on: KP-4; settings: KP-4 (Pancreas), 15 μM seliciclib
# From the text: as §1
# [20] = tested on: KYSE-450; settings: KYSE-450 (Esophagus), 15 μM seliciclib
# From the text: as §1
# [21] = tested on: LU99A; settings: LU99A (Lung: NSCLC), 15 μM seliciclib
# From the text: as §1
# [22] = tested on: LU99B; settings: LU99B (Lung: NSCLC), 15 μM seliciclib
# From the text: as §1
# [23] = tested on: Lu-135; settings: Lu-135 (Lung), 15 μM seliciclib
# From the text: as §1
# [24] = tested on: NAE; settings: NAE (Skin), 15 μM seliciclib
# From the text: as §1
# [25] = tested on: NCI-H630; settings: NCI-H630 (Intestine), 15 μM seliciclib
# From the text: as §1
# [26] = tested on: OVCAR-8; settings: OVCAR-8 (Ovary), 15 μM seliciclib
# From the text: as §1
# [27] = tested on: PA-TU-8902; settings: PA-TU-8902 (Pancreas), 15 μM seliciclib
# From the text: as §1
# [28] = tested on: PC-3; settings: PC-3 (Prostate), 15 μM seliciclib
# From the text: as §1
# [29] = tested on: PCI-4A; settings: PCI-4A (Head & Neck), 15 μM seliciclib
# From the text: as §1
# [30] = tested on: PFSK-1; settings: PFSK-1 (Brain), 15 μM seliciclib
# From the text: as §1
# [31] = tested on: RT4; settings: RT4 (Bladder), 15 μM seliciclib
# From the text: as §1
# [32] = tested on: SCCH-196; settings: SCCH-196 (Miscellaneous), 15 μM seliciclib
# From the text: as §1
# [33] = tested on: SN-12C; settings: SN-12C (Kidney), 15 μM seliciclib
# From the text: as §1
# [34] = tested on: SU.86.86; settings: SU.86.86 (Pancreas), 15 μM seliciclib
# From the text: as §1
# [35] = tested on: SW 48; settings: SW 48 (Intestine), 15 μM seliciclib
# From the text: as §1
# [36] = tested on: SW620; settings: SW620 (Intestine), 15 μM seliciclib
# From the text: as §1
# [37] = tested on: T84; settings: T84 (Intestine), 15 μM seliciclib
# From the text: as §1
# [38] = tested on: VMRC-RCZ; settings: VMRC-RCZ (Kidney), 15 μM seliciclib
# From the text: as §1
smiles,measurement,setting,value
"CC[C@H](CO)Nc1nc(NCc2ccccc2)c2ncn(C(C)C)c2n1 [seliciclib, roscovitine]",Fractional Growth,[1],0.4252
same,Fractional Growth,[2],0.3116
same,Fractional Growth,[3],0.4111
same,Fractional Growth,[4],0.2094
same,Fractional Growth,[5],0.671
same,Fractional Growth,[6],0.5677
same,Fractional Growth,[7],0.3139
same,Fractional Growth,[8],0.5795
same,Fractional Growth,[9],0.6209
same,Fractional Growth,[10],0.3103
same,Fractional Growth,[11],0.4399
same,Fractional Growth,[12],0.3892
same,Fractional Growth,[13],0.7486
same,Fractional Growth,[14],0.8974
same,Fractional Growth,[15],0.5223
same,Fractional Growth,[16],0.4837
same,Fractional Growth,[17],0.41
same,Fractional Growth,[18],0.5764
same,Fractional Growth,[19],0.5607
same,Fractional Growth,[20],0.4067
same,Fractional Growth,[21],0.0948
same,Fractional Growth,[22],0.2318
same,Fractional Growth,[23],0.2812
same,Fractional Growth,[24],0.3413
same,Fractional Growth,[25],0.7543
same,Fractional Growth,[26],0.5886
same,Fractional Growth,[27],0.5577
same,Fractional Growth,[28],0.4021
same,Fractional Growth,[29],0.3628
same,Fractional Growth,[30],0.249
same,Fractional Growth,[31],0.9342
same,Fractional Growth,[32],0.6177
same,Fractional Growth,[33],0.6383
same,Fractional Growth,[34],0.3887
same,Fractional Growth,[35],0.1123
same,Fractional Growth,[36],0.7486
same,Fractional Growth,[37],0.5371
same,Fractional Growth,[38],0.5994
